Measured values as given in EP0450461B1, “LHRH Analogs” (The Administrators of The Tulane Educational Fund, priority 1990, dated 1991).
Marks after values point to notes of the source that are not given here.

Assays:
[1] = test system: human mammary cell line MDA-MB-231; settings: 10µg dose; cited from earlier work
[2] = test system: 4-day-cycling rats; assay: In vivo antiovulatory activity; settings: 10 µg per rat
Protocol: This activity of the peptides is determined in 4-day-cycling rats as described [A. Corbin and C. W. Beattie, Endocr. Res. Commun., 2, 1-23 (1975)].
(§1) Table 2 presents the antiovulatory activity and human breast cancer cell membrane receptor binding affinity of the claimed compounds having LHRH-inhibiting properties. The inhibitory action was determined in vivo, in 4-day cycling rats as described [A. Corbin and C. W. Beattie, Endocr. Res. Commun., 2, 1-23 (1975)].

[3] = test system: MCF-7 human breast cancer cell line; assay: Cytotoxicity test: inhibition of 3H-thymidine incorporation into DNA; assay type: cell-based
Protocol: Ability of peptides of Formula I to inhibit incorporation of [³H]thymidine into DNA of monolayer cultures the human mammary tumor cell line MCF-7 is assayed as described [V. K. Sondak et al., Cancer Research, 44, 1725-1728 (1984); F. Holzel et al., J. Cancer Res. Clin. Oncol. 109, 217-226 (1985); M. Albert et al., J. Cancer Res. Clin. Oncol. 109, 210-216 (1985)].
200,000 cells in 200 µl of […] + 2% CFBS were incubated with 1,5 or 10 µg cytotoxic analogs for 3 hours or 23 hours then 1 µCi ³H-thymidine added and incubated an additional 60 min. DNA extracted with 1 N perchloric acid and the radioactivity measured.

[4] = test system: membrane receptors of human breast cancer cells; assay: Receptor binding affinity for human breast cancer cell membranes, labelled [D-Trp6]LHRH as ligand
Protocol: Affinity for peptides to human breast cancer cell membranes is determined by using labelled LHRH and [D-Trp⁶]LHRH. The assay is carried out similarly to that described by T. Kadar et al., Proc. Natl. Acad. Sci. USA, 85, 890-894 (1988) and M. Fekete et al., Endocrinology, 124, 946-955 (1989).
as §1

[5] = test system: rat pituitary cell; settings: LH-releasing activity compared to that produced by 3 nM LH-RH; peptide infused for 3 minutes
Protocol: Ability of compounds to influence LH release in vitro is assayed by using a superfused rat pituitary cell system [S. Vigh and A. V. Schally, Peptides, 5 Suppl.
LH-releasing effect of compounds is determined as follows: each peptide is perfused through the cells for 3 min (1 ml perfusate) at 20-100 pM. LH content of 1 ml fractions collected is determined by radioimmunoassay (RIA). Potency of peptides is compared to that of 3 nM LHRH perfused similarly.
The peptide was infused for 3 minutes at various concentration, and the amount of LH released was compared to that released by 3 nM LHRH.

[6] = Table 2, ¹²⁵I-[D-Trp]⁶ LHRH used as the labelled ligand
[7] = Table 1, ¹²⁵I-[D-Trp]⁶LHRH used as labelled ligand

Compound | %Ovulation Blockade [2] | % Inhibition at 24 hrs ([3]; Dose 1 µg/ml) | % Inhibition at 24 hrs ([3]; Dose 10 µg/ml) | Affinity Constant Ka1 [4, 6] | Affinity Constant Ka1 [4, 7] | other results
pGlu-His-Trp-Ser-Tyr-D-Lys[Ahx-A₂bu(SAL)₂(Cu)]-Leu-Arg-Pro-Gly-NH₂ |  |  |  |  |  | inhibits the [³H]thymidine incorporation into DNA [1]: 87%
Ac-Nal(2)-D-Phe(4Cl)-D-Trp-Ser-Arg-D-Lys[A₂pr(HMAQG)₂]-Leu-Arg-Pro-D-Ala-NH₂ [compound 3] | 0% | 3% | 11% | 7.05 nM⁻¹ |  | Affinity Constant Ka2 [4, 6]: 8.6 µM⁻¹
pGlu-His-Trp-Ser-Tyr-D-Lys(MTX)-Leu-Arg-Pro-Gly-NH₂ [2B] |  |  |  |  | 0.63 nM⁻¹ | 
Ac-Nal(2)-D-Phe(4Cl)-D-Pal(3)-Ser-Arg-D-Lys[A₂pr(HMAQG)₂]-Leu-Arg-Pro-D-Ala-NH₂ [compound 4] | 40% | 15% | 40** % | 2.28 nM⁻¹ |  | % Inhibition at 4 hrs ([3]; Dose 1 µg/ml): 31** %; % Inhibition at 4 hrs ([3]; Dose 10 µg/ml): 28** %
pGlu-His-Trp-Ser-Tyr-D-Lys(MTX)-Leu-Arg-Pro-Gly-NH₂ [2A] |  |  |  |  | 5.42 nM⁻¹ | Affinity Constant Ka2 [4, 7]: 1.59 µM⁻¹
CC(C)C[C@H](NC(=O)[C@@H](CCCCNC(=O)CCCC(=O)OCc1ccc2c(c1)C(=O)c1ccccc1C2=O)NC(=O)[C@H](Cc1ccc(O)cc1)NC(=O)[C@H](CO)NC(=O)[C@H](Cc1c[nH]c2ccccc12)NC(=O)[C@H](Cc1c[nH]cn1)NC(=O)[C@@H]1CCC(=O)N1)C(=O)N[C@@H](CCCNC(=N)N)C(=O)N1CCC[C@H]1C(=O)NCC(N)=O [compound 1, pGlu-His-Trp-Ser-Tyr-D-Lys(HMAQG)-Leu-Arg-Pro-Gly-NH₂] |  |  |  |  |  | Relative Activity [5]: 35
